Data from patent publication US20200399238A1, “THERAPEUTIC AURONES” (MIDDLE TENNESSEE STATE UNIVERSITY, priority 2016, published 2020).
Where two headings read alike, the source gives them in different places.

Columns and labels:
[1] = tested on: Leishmania amazonensis promastigotes expressing beta-lactamase; assay: microbe, parasite or virus in culture; type: cell-based; settings: for IC50: Leishmania amazonensis
[2] = tested on: rat skeletal muscle cell line, L6; assay: cells; type: cell-based; settings: Rattus norvegicus
[3] = tested on: Trypanosoma cruzi Tulahuen cells expressing beta-galactosidase; assay: T. cruzi intracellular assay (beta-galactosidase, L6 host cells); settings: for IC50: Trypanosoma cruzi, TULAHUEN; for Selectivity L6/TC-I: Table 3A, estimated from highest L6 dose tested where no L6 IC50
[4] = tested on: Trypanosoma brucei brucei 427 cells; assay: T. brucei culture and assay (PrestoBlue); type: cell-based; settings: for IC50: mean of 2(+) independent trials, read-out: IC50 T. brucei
[5] = tested on: C. albicans (ATCC strain 90028); assay: Antifungal microdilution broth assay (PrestoBlue), C. albicans; type: cell-based, Candida albicans; settings: Candida albicans, ATCC90028, Table 4B; C. albicans; 100 μM; value ± spread; read-out: Percent Inhibition (at 100 μM)
Experimental: Sigma-Aldrich) was used as the base medium for testing. […] solution of morpholinepropanesulfonic acid (MOPS; Sigma-Aldrich) was added to the RPMI to a final concentration of 0.165 M for buffering (RPMI-MOPS). This medium was adjusted to a pH of 7.0 with 10 M NaOH and filter sterilized. C. albicans (ATCC strain 90028), C. [NT] strain 66032), and C. tropicalis (ATCC strain 750) were cultured on potato dextrose agar (Sigma-Aldrich) plates, and incubated at 35° C. for 24 hours. For antifungal testing, overnight colonies were adjusted to 1.5×10^3 cells/mL, hereafter referred to as the test inoculum. PrestoBlue® (Life Technologies, Invitrogen, Carlsbad, Calif.), a resazurin-based cell viability reagent that, in metabolically active cells, is reduced from blue, non-fluorescent resazurin, to red, fluorescent resorufin, was used to assess inhibition of yeast growth by the aurones. […] Following addition of aurone, plates were then incubated for 24 hours at 35° C. PrestoBlue was added to a final concentration of 10% in each well and fluorescence read at 560 nm excitation and 590 nm emission, per manufacturer instructions, using a SpectraMax M2e spectrophotometer (Molecular Devices, LLC, Sunnyvale, Calif.). To optimize the PrestoBlue reduction time, RFUs were collected at 15 minute intervals for 4 hours using a reference antifungal. […] IC50 determination was calculated using GraphPad Prism version 7.01 for Windows (GraphPad Software, Inc., La Jolla, Calif.) from the RFUs at dilution points. Calculations were made with a nonlinear regression after transforming the molar concentrations of the aurones into the logarithmic form. Graphing was accomplished utilizing the same program following a four parameter curve fitting sigmoidal plot of the data. All aurones and controls were tested in triplicate and all testing was repeated in at least three independent experiments.

[6] = Table 1, read-out: IC50 Toxicity (L6)
[7] = read-out: IC50 T. cruzi, Table 1, intracellular assay, mean of 2(+) trials (^c one trial)
[8] = read-out: IC50 T. cruzi, Table 2, intracellular assay, mean of 2(+) independent trials
[9] = read-out: IC50 L. amaz. (footnote c: value obtained from one trial)
[10] = Table 2, L6 IC50 / L. amazonensis IC50
[11] = Table 3A, weighted means of two or more independent trials, read-out: IC50 L6
[12] = Table 1, intracellular T. cruzi IC50
[13] = Table 2, L6 IC50 / T. cruzi IC50 (intracellular assay)
[14] = read-out: IC50 TC-I, Table 3A, weighted means of two or more independent trials

For Cc1ccccc1/C=C1\Oc2ccccc2C1=O [Aurone 9057, (Z)-2-(2-methylbenzylidene)benzofuran-3(2H)-one], the melting point was 89 to 93 °C, the IC50 ([1]; read-out: IC50 L. amaz.) was less than 1 µM and the IC50 [2, 6] was 99.6 µM. It also gave an IC50 [3, 7] of 26.3 µM, an IC50 [3, 8] of 26.3 µM and an IC50 ([4]; Trypanosoma brucei, Table 1) of 24.4 µM.
With CC(=O)Nc1ccc(/C=C2\Oc3ccccc3C2=O)cc1 [Aurone 3006, (Z)-N-(4-((3-oxobenzofuran-2(3H)-ylidene)methyl)phenyl)acetamide] the melting point was 260 to 270 °C, the IC50 ([1]; read-out: IC50 L. amaz.) was 12.5 µM and the “Selectivity L6/La” value ([1]; Table 1) was greater than 7.99. For the same molecule, the IC50 [2, 6] was greater than 100 µM, the IC50 ([2]; Table 3C, weighted means of two or more independent trials, read-out: IC50 L6) was greater than 100 µM and the IC50 [3, 7] was greater than 50 µM. For the same molecule, the IC50 ([3]; read-out: IC50 TC-I, Table 3C, intracellular T. cruzi, weighted means of two or more independent trials) was greater than 50 µM and the IC50 ([4]; Trypanosoma brucei, Table 1) was greater than 50 µM.
COc1ccc(/C=C2\Oc3ccccc3C2=O)cc1O [Aurone 9078, (Z)-2-(3-hydroxy-4-methoxybenzylidene)benzofuran-3(2H)-one] gave an inhibition at 100 µM [5] of 45.6 ± 2.6%, an IC50 ([1]; read-out: IC50 L. amaz.) of 1.45 µM and an IC50 [2, 6] of 70.7 µM. For the same molecule, the IC50 ([4]; Trypanosoma brucei, Table 1) was 41.2 µM.
In the case of COc1ccc2c(c1)O/C(=C\c1cccs1)C2=O [Aurone 5001, (Z)-6-methoxy-2-(thiophen-2-ylmethylene)benzofuran-3(2H)-one], the melting point is reported as 99 to 103 °C, the IC50 ([1]; read-out: IC50 L. amaz.) is reported as 21.1 µM and the “Selectivity L6/La” value ([1]; Table 1) is reported as greater than 4.73. The IC50 [2, 6] was greater than 100 µM, the IC50 [3, 7] was greater than 50 µM and the IC50 ([4]; Trypanosoma brucei, Table 1) was greater than 50 µM.
For O=C1/C(=C/c2ccccc2F)Oc2ccccc21 [Aurone 9004, (Z)-2-(2-fluorobenzylidene)benzofuran-3(2H)-one], the melting point was 76 to 81 °C, the IC50 ([1]; read-out: IC50 L. amaz.) was 10.5 µM and the IC50 [1, 9] was 10.5 µM. For the same molecule, the “Selectivity L6/La” value ([1]; Table 1) was 16.83, the “Selectivity L6/La” value [1, 10] was 16.83 and the IC50 [2, 6] was 176 µM. For the same molecule, the IC50 [2, 11] was 176 µM, the “Selectivity L6/Tc” value [3, 12] was 8.00 and the “Selectivity L6/Tc” value [3, 13] was 8.00. The “Selectivity L6/TC-I” value [3] was 8.00, the IC50 [3, 7] was 22 µM and the IC50 [3, 8] was 22 µM. It also gave an IC50 [3, 14] of 22 µM, an IC50 ([4]; Table 2) greater than 50 µM and an IC50 ([4]; Trypanosoma brucei, Table 1) greater than 50 µM.
In the case of O=C1/C(=C/c2cccc3[nH]ccc23)Oc2ccccc21 [Aurone 9063, (Z)-2-((1H-indol-4-yl)methylene)benzofuran-3(2H)-one], the melting point is reported as 230 to 238 °C, the IC50 ([1]; read-out: IC50 L. amaz.) is reported as 1.13 µM and the IC50 [2, 6] is reported as 94 µM. It also gave an IC50 ([2]; Table 3B, weighted means of two or more independent trials, read-out: IC50 L6) of 94 µM, an IC50 [3, 7] of 18.9 µM and an IC50 [3, 8] of 18.9 µM. For the same molecule, the IC50 ([3]; read-out: IC50 TC-I, Table 3B, weighted means of two or more independent trials) was 18.9 µM and the IC50 ([4]; Trypanosoma brucei, Table 1) was greater than 50 µM.
O=C1/C(=C/c2cccc(C(F)(F)F)c2)Oc2ccccc21 [Aurone 9085, (Z)-2-(3-(trifluoromethyl)benzylidene)benzofuran-3(2H)-one] showed a melting point of 128 to 133 °C, an IC50 ([1]; read-out: IC50 L. amaz.) of 4.43 µM and an IC50 [2, 6] of 73.4 µM. The IC50 [3, 7] was 11.1 µM, the IC50 [3, 8] was 11.1 µM and the IC50 ([4]; Trypanosoma brucei, Table 1) was greater than 50 µM.
O=C1/C(=C/c2ccccc2Cl)Oc2ccccc21 [Aurone 9007, (Z)-2-(2-chlorobenzylidene)benzofuran-3(2H)-one] gave a melting point of 118 to 126 °C, an IC50 ([1]; read-out: IC50 L. amaz.) of 17.5 µM and an IC50 [1, 9] of 17.5 µM. For the same molecule, the “Selectivity L6/La” value ([1]; Table 1) was 13.55, the “Selectivity L6/La” value [1, 10] was 13.55 and the IC50 [2, 6] was 238 µM. The IC50 [2, 11] was 238 µM, the “Selectivity L6/Tc” value [3, 12] was 18.72 and the “Selectivity L6/Tc” value [3, 13] was 18.72. The “Selectivity L6/TC-I” value [3] was 18.72, the IC50 [3, 7] was 12.7 µM and the IC50 [3, 8] was 12.7 µM. For the same molecule, the IC50 [3, 14] was 12.7 µM, the “Selectivity L6/Tb” value ([4]; Table 1) was 21.02 and the “Selectivity L6/Tb” value ([4]; Table 2, L6 IC50 / T. brucei IC50) was 21.02. For the same molecule, the “Selectivity L6/Tb” value ([4]; Table 3A, estimated from highest L6 dose tested where no L6 IC50) was 21.02 and the IC50 ([4]; Trypanosoma brucei, Table 1) was 11.3 µM.
